Results from ChEMBL document CHEMBL1201862, “PubChem BioAssay data set” (2004).
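Tested at 5 concentrations; 48 h exposure; 96-well plates; endpoints linearly interpolated, else capped at highest concentration. Here, GI50 denotes the concentration required for 50% inhibition of growth.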 Active and inactive are the calls of the source. Cut-off read from the data, not from the text of the source: active = GI50 up to about 1.1 µM and inactive = higher.

How the values were obtained:
Assay in all cases: inhibition of tumour cell growth, NCI panel, 48 h
SK-MEL-2 = system: SK-MEL-2
NCI-H460 = system: NCI-H460
RXF 393 = system: RXF 393
MDA-MB-435 = system: MDA-MB-435
M14 = system: M14
K562 = system: K562
SF-268 = system: SF-268
COLO 205 = system: COLO 205
OVCAR-5 = system: OVCAR-5
IGROV-1 = system: IGROV-1
SF-295 = system: SF-295
NCI/ADR-RES = system: NCI/ADR-RES
A549 = system: A549
SK-MEL-5 = system: SK-MEL-5
HT-29 = system: HT-29
SK-OV-3 = system: SK-OV-3
UACC-257 = system: UACC-257
HCT-15 = system: HCT-15
LOX IMVI = system: LOX IMVI

Measured: GI50

O=C(/C=C/c1ccccc1)Oc1ccc(C(=O)/C=C/c2ccc(Cl)cc2)cc1
inactive: SK-MEL-2 > 100 µM | NCI-H460 15.8 µM | RXF 393 97.3 µM | MDA-MB-435 25.1 µM | M14 > 100 µM | K562 87.3 µM | SF-268 82.2 µM | COLO 205 > 100 µM | OVCAR-5 > 100 µM | IGROV-1 > 100 µM | SF-295 82.6 µM | NCI/ADR-RES 46.5 µM | A549 > 100 µM | SK-MEL-5 83.4 µM | HT-29 > 100 µM | SK-OV-3 > 100 µM | UACC-257 > 100 µM

COC(=O)C1=C(C)NC2=C(C(=O)c3ccccc32)C1c1cn(-c2ccccc2)nc1-c1ccccc1 (stereo not given)
inactive: SK-MEL-2 > 59.3 µM | RXF 393 > 44.8 µM | MDA-MB-435 16.6 µM | M14 > 100 µM | K562 16.3 µM | LOX IMVI 37.4 µM | SF-268 > 45.6 µM | COLO 205 > 100 µM | OVCAR-5 > 100 µM | IGROV-1 6.24 µM | SF-295 34.5 µM | NCI/ADR-RES 70.6 µM | A549 12 µM | SK-MEL-5 > 100 µM | SK-OV-3 > 100 µM | UACC-257 > 85.3 µM
30.1 µM: HCT-15

COc1ccc2cc(-c3nc(N)nc(N4N=C(C)CC4(C)C)n3)c(=N)oc2c1
14.8 µM: HCT-15
inactive: SK-MEL-2 17.5 µM | NCI-H460 17.4 µM | RXF 393 23.4 µM | MDA-MB-435 18.5 µM | M14 21.5 µM | K562 16.4 µM | SF-268 16.9 µM | COLO 205 16.6 µM | OVCAR-5 18.7 µM | IGROV-1 14.8 µM | SF-295 18.3 µM | NCI/ADR-RES 31.4 µM | A549 24.9 µM | SK-MEL-5 16.2 µM | HT-29 17.6 µM | SK-OV-3 23.6 µM | UACC-257 28.9 µM

Cc1cc(N(CCC#N)CCC#N)ccc1C(/N=N/c1ccc(Cl)cc1)=N\NC(=O)c1cc(Cl)ccc1O
inactive: SK-MEL-2 67 µM | NCI-H460 27.9 µM | RXF 393 22.2 µM | MDA-MB-435 > 100 µM | M14 > 100 µM | K562 76.2 µM | SF-268 27.7 µM | COLO 205 47.9 µM | OVCAR-5 > 100 µM | IGROV-1 30.6 µM | SF-295 22.8 µM | NCI/ADR-RES 52.8 µM | A549 31.3 µM | SK-MEL-5 > 100 µM | HT-29 45.9 µM | SK-OV-3 34.8 µM | UACC-257 72.8 µM
39.4 µM: HCT-15

O=c1[nH]nc(-c2cccc([N+](=O)[O-])c2)[nH]1
inactive: SK-MEL-2 > 100 µM | NCI-H460 > 100 µM | RXF 393 > 100 µM | MDA-MB-435 > 100 µM | M14 > 100 µM | K562 > 100 µM | LOX IMVI > 100 µM | SF-268 > 100 µM | COLO 205 > 100 µM | OVCAR-5 > 100 µM | IGROV-1 > 100 µM | SF-295 > 100 µM | NCI/ADR-RES > 100 µM | A549 > 100 µM | HT-29 > 100 µM | UACC-257 > 100 µM
> 100 µM: HCT-15

N#Cc1c(NC(=O)CCC(=O)O)ccc2ccccc12
> 100 µM: HCT-15
inactive: SK-MEL-2 > 100 µM | NCI-H460 > 100 µM | RXF 393 > 100 µM | MDA-MB-435 > 100 µM | M14 > 100 µM | K562 > 100 µM | SF-268 > 100 µM | COLO 205 > 100 µM | OVCAR-5 > 100 µM | IGROV-1 > 100 µM | SF-295 > 100 µM | NCI/ADR-RES > 100 µM | A549 > 100 µM | SK-MEL-5 > 100 µM | HT-29 > 100 µM | SK-OV-3 > 100 µM | UACC-257 > 100 µM
